Each compound was assayed against T1, cloned human dopamine D3 receptors (Homo sapiens, UniProt P35462) (assay: [N-Methyl-3H]Spiroperidol binding to cloned human dopamine D3 receptors). Details: read-out: D3 Ki.
T1 construct: expressed in transfected cells; membrane homogenate
How it was run: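 Radioligand displacement with [N-methyl-3H]spiroperidol was run on membranes from a high-expressing CHO clone carrying human D3. Membranes were prepared in 10% DMSO and stored at −80° C.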

T1 sequence (P35462 whole entry): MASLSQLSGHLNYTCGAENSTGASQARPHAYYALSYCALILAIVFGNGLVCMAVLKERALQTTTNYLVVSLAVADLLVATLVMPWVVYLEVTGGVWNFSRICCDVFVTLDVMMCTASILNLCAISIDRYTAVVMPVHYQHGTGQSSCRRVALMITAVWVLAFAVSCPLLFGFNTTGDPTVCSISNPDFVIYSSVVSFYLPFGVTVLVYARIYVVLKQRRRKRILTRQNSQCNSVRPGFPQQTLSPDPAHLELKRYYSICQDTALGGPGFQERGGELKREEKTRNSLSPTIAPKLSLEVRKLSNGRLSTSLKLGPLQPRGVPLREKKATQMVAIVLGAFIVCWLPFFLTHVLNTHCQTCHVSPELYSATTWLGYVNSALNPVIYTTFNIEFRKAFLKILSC

| Ki | Compound |
| --- | --- |
| 6.6 nM | O=C(C1CC1CN1CCC(c2noc3ccsc23)CC1)N1CCN(Cc2ccc(F)cc2)CC1 (racemic) [compound 832164] |
| 30.1 nM | O=C(C1CC1CN1CCC(c2noc3ccsc23)CC1)N1CCN(Cc2ccc3c(c2)OCO3)CC1 (racemic) [compound 832165] |
| 7.87 nM | O=C(NCCCc1ccn(S(=O)(=O)c2ccccc2)c1)C1CC1CN1CCC(c2noc3ccsc23)CC1 (racemic) [compound 832185] |
| 16.1 nM | COc1ccc(CCNC(=O)C2CC2CN2CCC(c3noc4ccsc34)CC2)cc1OC (racemic) [compound 832186] |
| 19.1 nM | CC1(C)CC(NC(=O)C2CC2CN2CCC(c3noc4ccsc34)CC2)CC(C)(C)N1 (racemic) [compound 832187] |
| 10.1 nM | CC(C)N1CCN(C(=O)C2CC2CN2CCC(c3noc4ccsc34)CC2)CC1 (racemic) [compound 832188] |
| 58.5 nM | C=CCN1CCN(C(=O)C2CC2CN2CCC(c3noc4ccsc34)CC2)CC1 (racemic) [compound 832189] |
| 94.6 nM | COCCN1CCN(C(=O)C2CC2CN2CCC(c3noc4ccsc34)CC2)CC1 (racemic) [compound 832190] |
| 8.06 nM | O=C(NCCC(c1ccccc1)c1ccccc1)C1CC1CN1CCC(c2noc3ccsc23)CC1 (racemic) [compound 832191] |
| 7.81 nM | O=C(NCCCc1cc[nH]c1)C1CC1CN1CCC(c2noc3ccsc23)CC1 (racemic) [compound 832192] |
| 13.1 nM | O=C(C1CC1CN1CCC(c2noc3ccsc23)CC1)N1CCC(n2ccnc2)CC1 (racemic) [compound 832193] |
| 23 nM | Cc1cc(C)c(CN2CCN(C(=O)C3CC3CN3CCC(c4noc5ccsc45)CC3)CC2)c(C)c1 (racemic) [compound 832194] |
| 22.8 nM | O=C(C1CC1CN1CCC(c2noc3ccsc23)CC1)N1CCN(CC2CCCCC2)CC1 (racemic) [compound 832195] |
| 22.9 nM | O=C(C1CC1CN1CCC(c2noc3ccsc23)CC1)N1CCN(C2CCCC2)CC1 (racemic) [compound 832196] |
| 17.1 nM | O=C(C1CC1CN1CCC(c2noc3ccsc23)CC1)N1CCN(CCCc2ccccc2)CC1 (racemic) [compound 832197] |
| 5.81 nM | O=C(C1CC1CN1CCC(c2noc3ccsc23)CC1)N1CCC(CCN2CCCC2)CC1 (racemic) [compound 832198] |
| 11.5 nM | O=C(NC1CCN(Cc2cccc(F)c2F)CC1)C1CC1CN1CCC(c2noc3ccsc23)CC1 (racemic) [compound 832340] |
| 2.63 nM | O=C(NC1CCN(CC2CC2)CC1)C1CC1CN1CCC(c2noc3ccsc23)CC1 (racemic) [compound 832341] |

| Ki | Compound |
| --- | --- |
| 0.718 nM | O=C(NC1CCN(Cc2cc(F)cc(F)c2)CC1)C1CC1CN1CCC(c2noc3ccsc23)CC1 (racemic) [compound 832343] |
| 2.76 nM | O=C(NC1CCN(Cc2ccc(F)cc2F)CC1)C1CC1CN1CCC(c2noc3ccsc23)CC1 (racemic) [compound 832344] |
| 12.9 nM | O=C(NC1CCN(Cc2cc(F)ccc2Cl)CC1)C1CC1CN1CCC(c2noc3ccsc23)CC1 (racemic) [compound 832346] |
| 1.88 nM | O=C(NC1CCN(Cc2cc(Cl)ccc2Cl)CC1)C1CC1CN1CCC(c2noc3ccsc23)CC1 (racemic) [compound 832347] |
| 0.465 nM | Cc1cccc(CN2CCC(NC(=O)C3CC3CN3CCC(c4noc5ccsc45)CC3)CC2)c1 (racemic) [compound 832348] |
| 77.9 nM | CC(C)(C)OC(=O)N1CCC(NC(=O)C2CC2CN2CCC(c3noc4ccsc34)CC2)CC1 (racemic) [compound 832391] |
| 2.29 nM | O=C(NC1CCN(Cc2ncc[nH]2)CC1)C1CC1CN1CCC(c2noc3ccsc23)CC1 (racemic) [compound 832392] |
| 8.44 nM | O=C(NC1CCN(Cc2ccncc2)CC1)C1CC1CN1CCC(c2noc3ccsc23)CC1 (racemic) [compound 832393] |
| 8.32 nM | O=C(NC1CCN(Cc2cccnc2)CC1)C1CC1CN1CCC(c2noc3ccsc23)CC1 (racemic) [compound 832394] |
| 51.9 nM | O=C(NCCSc1ccc(Cl)cc1)C1CC1CN1CCC(c2noc3ccsc23)CC1 (racemic) [compound 832397] |
| 12.8 nM | O=C(NC1CCN(C(=O)c2ccc(Cl)c(Cl)c2)CC1)C1CC1CN1CCC(c2noc3ccsc23)CC1 (racemic) [compound 832464] |
| 66.1 nM | O=C(NC1CCN(C(=O)c2ccc(Cl)s2)CC1)C1CC1CN1CCC(c2noc3ccsc23)CC1 (racemic) [compound 832487] |
| 39.5 nM | O=C(NC1CCN(C(=O)c2cccc(Cl)c2)CC1)C1CC1CN1CCC(c2noc3ccsc23)CC1 (racemic) [compound 832488] |
| 95 nM | CCN1CCN(C(=O)N2CCC(NC(=O)C3CC3CN3CCC(c4noc5ccsc45)CC3)CC2)C(=O)C1=O (racemic) [compound 832489] |
| 40.6 nM | O=C(NC1CCN(C(=O)c2ccc(Cl)nc2)CC1)C1CC1CN1CCC(c2noc3ccsc23)CC1 (racemic) [compound 832505] |
| 1.04 nM | CCN1CCC(NC(=O)C2CC2CN2CCC(c3noc4ccsc34)CC2)CC1 (racemic) [compound 833372] |
| 55.4 nM | CN1CCCC1CCNC(=O)[C@@H]1C[C@H]1CN1CCC(c2noc3ccsc23)CC1 (single isomer, unassigned) [compound 832513] |

The remaining lines, values behind:

| Compound | Ki |
| --- | --- |
| O=C(NCCS(=O)(=O)c1cccc2cnccc12)C1CC1CN1CCC(c2noc3ccsc23)CC1 (racemic) [compound 832044] | 657 nM |
| CC(C)(C)c1ccc(CCNC(=O)C2CC2CN2CCC(c3noc4ccsc34)CC2)cc1 (racemic) [compound 832046] | 35.5 nM |
| O=C(NCCc1cccc(C(F)(F)F)c1)C1CC1CN1CCC(c2noc3ccsc23)CC1 (racemic) [compound 832047] | 25.8 nM |
| O=C(C1CC1CN1CCC(c2noc3ccsc23)CC1)N1CCN(CCc2cccs2)CC1 (racemic) [compound 832049] | 6.54 nM |
| O=C(C1COc2ccccc2O1)N1CCN(C(=O)C2CC2CN2CCC(c3noc4ccsc34)CC2)CC1 (racemic) [compound 832055] | 112 nM |
| O=C(C1CC1CN1CCC(c2noc3ccsc23)CC1)N1CCN(CCc2ccccc2)CC1 (racemic) [compound 832057] | 21.7 nM |
| O=C(C1CC1CN1CCC(c2noc3ccsc23)CC1)N1CCN(c2ccc(OCc3ccccc3)cc2)CC1 (racemic) [compound 832059] | 4.13 nM |
| O=C(C1CC1CN1CCC(c2noc3ccsc23)CC1)N1CCN(Cc2ccccc2)CC1 (racemic) [compound 832153] | 30.7 nM |
| Cc1ccc(CN2CCN(C(=O)C3CC3CN3CCC(c4noc5ccsc45)CC3)CC2)cc1 (racemic) [compound 832154] | 21.9 nM |
| COc1ccc(CN2CCN(C(=O)C3CC3CN3CCC(c4noc5ccsc45)CC3)CC2)cc1 (racemic) [compound 832155] | 0.434 nM |
| O=C(C1CC1CN1CCC(c2noc3ccsc23)CC1)N1CCN(Cc2ccc(Cl)cc2)CC1 (racemic) [compound 832156] | 0.315 nM |
| CC(C)(C)c1ccc(CN2CCN(C(=O)C3CC3CN3CCC(c4noc5ccsc45)CC3)CC2)cc1 (racemic) [compound 832157] | 0.226 nM |
| Cc1cccc(CN2CCN(C(=O)C3CC3CN3CCC(c4noc5ccsc45)CC3)CC2)c1 (racemic) [compound 832158] | 0.37 nM |
| O=C(NC1CCN(c2ncccc2C(F)(F)F)C1)C1CC1CN1CCC(c2noc3ccsc23)CC1 (racemic) [compound 832199] | 18.7 nM |
| C[C@H]1CC[C@H](NC(=O)C2(CCN3CCC(c4noc5ccsc45)CC3)CC2)CC1 [832241A] | 51.8 nM |
| CC[C@H]1CC[C@H](NC(=O)C2(CCN3CCC(c4noc5ccsc45)CC3)CC2)CC1 [832242A] | 436 nM |
| CC[C@H]1CC[C@H](NC(=O)[C@@H]2C[C@H]2CN2CCN(c3nn(C)c4ccc(OC)cc34)CC2)CC1 [832747ES] | 1.05 nM |

| Compound | Ki |
| --- | --- |
| C[C@H]1CC[C@H](N2CC(CN3CCN(c4noc5ccsc45)CC3)CC2=O)CC1 (some centres unmarked) [832831DA] | 1150 nM |
| Cn1nc(N2CCN(C[C@@H]3C[C@H]3C(=O)N[C@H]3CC[C@H](O)CC3)CC2)c2sccc21 [8319560A] | 5.91 nM |
| O=C([C@@H]1C[C@H]1CN1CCC(c2noc3ccc(C(F)(F)F)cc23)CC1)N1CCC(Cn2ccnc2)CC1 [A002200836] | 1.51 nM |
| O=C(NCCCn1ccnc1)[C@@H]1C[C@H]1CN1CCC(c2noc3ccc(C(F)(F)F)cc23)CC1 [A002200837] | 0.368 nM |
| O=C(NCCCN1CCCCC1)[C@@H]1C[C@H]1CN1CCC(c2noc3ccc(C(F)(F)F)cc23)CC1 [A002200838] | 0.807 nM |
| Cn1nc(N2CCN(CCCC(=O)N[C@H]3CC[C@H](C)CC3)CC2)c2sccc21 [A002201941] | 119 nM |
| CCCCn1nc(N2CCN(C[C@@H]3C[C@H]3C(=O)NCCCn3ccnc3)CC2)c2sccc21 [A002202401] | 205 nM |
| Cn1nc(N2CCN(C[C@@H]3C[C@H]3C(=O)NCCCn3cnc4ccccc43)CC2)c2sccc21 [A002202403] | 86.8 nM |
| COc1ccc2c(c1)c(N1CCN(C[C@@H]3C[C@H]3C(=O)NCCCn3cnc4ccccc43)CC1)nn2C [A002243383] | 25.1 nM |
| O=C(NCCCn1cnc2ccccc21)[C@@H]1C[C@H]1CN1CCN(c2csc3cc(C(F)(F)F)ccc23)CC1 [A002243384] | 133 nM |
| O=C(NCCCn1cnc2ccccc21)[C@@H]1C[C@H]1CN1CCN(c2nn(-c3ccc(OC(F)(F)F)cc3)c3ccsc23)CC1 [A002243385] | 661 nM |
| O=C(N[C@H]1CC[C@H](O)CC1)[C@@H]1C[C@H]1CN1CCN(c2nn(-c3cccc(F)c3)c3ccsc23)CC1 [A002243404] | 492 nM |
| O=C(NC1CCNCC1)[C@@H]1C[C@H]1CN1CCC(c2csc3cc(C(F)(F)F)ccc23)CC1 [A002287513] | 3.57 nM |
| Cn1nc(N2CCN(C[C@@H]3C[C@H]3C(=O)NC3CCN(CC4CCCCC4)CC3)CC2)c2sccc21 [A002287757] | 2.41 nM |
| CN1CCN(CCCNC(=O)[C@@H]2C[C@H]2CN2CCN(c3nn(-c4ccc(OC(F)(F)F)cc4)c4ccsc34)CC2)CC1 [A002287758] | 139 nM |
| O=C(NCCCN1CCCCC1)[C@@H]1C[C@H]1CN1CCC(c2noc3cc(C(F)(F)F)ccc23)CC1 [A002287764] | 0.48 nM |

Reference: patent publication US7772252B2, “Heterocyclic substituted carbonyl derivatives and their use as dopamine D3 receptor ligands” (Aventis Pharmaceuticals Inc., priority 2001, dated 2010)
